# Measurements published in US20220290095A1, “Bifidobacterium breve CCFM1025, Food Fermented Thereby and Application Thereof” (Jiangnan University, priority 2018, published 2022).
# What was measured:
# [1] = tested on: depressed mice (chronic unpredictable stress depression mouse model); assay: Depression-like behaviors of depressed mice (behavioral tests overall); format: in vivo, C57BL/6J mice
# Procedure: (§1) 32 6-week-old male C57BL/6J mice were selected. After one week of adaptation to the environment, the mice were randomly divided into four groups according to body weight: a control group, a model group, a fluoxetine intervention group, and a CCFM1025 intervention group, each containing 8 mice.
# (§2) Chronic unpredictable stress depression mouse model: 1-2 kinds of stimuli were randomly performed every day, and the performance time of stimuli every day was determined randomly to avoid the circadian rhythm. Each method was used for not more than three times, and the stimuli were performed for five weeks. The stimuli include: (1) fasting for 24 h; (2) water deprivation+empty bottle stimulus for 24 h; (3) tail pinching for 3 min; (4) wet padding for 24 h; (5) immobilization for 1-2 h; (6) […] for 24 h; (7) continuous lighting for 24 h; (8) no padding for 24 h; (9) forced swim for 15 min; and (10) separation for 24 h.
# Lactic acid bacteria gavage: the activated second generation of Bifidobacterium CCFM1025 was taken and cultured at 37° C. for 24 h, and the bacteria were collected after centrifugation at 4° C. and 8000 r/min for 3 min. The supernatant was discarded and the bacteria were resuspended with 5% sterilized skim milk to make the concentration of lactic acid bacteria reach 5×10^9 CFU/mL. The gavage volume is 0.2 mL/mouse/day. […]
# [2] = tested on: 5-HT in the serum; assay: 5-HT in serum of depressed mice (ELISA); format: in vivo, C57BL/6J mice; conditions: concluded from serum 5-HT, FIG. 4
# Procedure: as §1, §2
# Lactic acid bacteria gavage: the activated second generation of Bifidobacterium CCFM1025 was taken and cultured at 37° C. for 24 h, and the bacteria were collected after centrifugation at 4° C. and 8000 r/min for 3 min. […]
# The serum collected in Example 3 was taken and the content of 5-HT in the serum was measured using an ELISA kit. […]
structure (smiles),measurement,setting,value
CNCCC(Oc1ccc(C(F)(F)F)cc1)c1ccccc1 (centres unmarked) [fluoxetine],depression-like behaviors / antidepressant effect,[1],has an antidepressant effect
same,intestinal peristalsis / intestinal function,[2],cannot improve the intestinal function
